The results in this text go back to PMC10992195, “Identification, heterologous expression and characterization of a new unspecific peroxygenase from Marasmius fiardii PR-910” (Bioresources and Bioprocessing, 2024).

The subject of assay [1] is T1, rMfiUPO.
T1 construct: gene MfiUPO
The conditions noted are these: 2 mM H2O2 co-substrate; 30 °C; optimal pH (pH 4.0 optimum in text; pH 4.5 sodium citrate in Fig. 4 legend).

The subject of assay [2] is T2, rMfiUPO.
T2 construct: gene MfiUPO; full-length codon-optimised gene with native signal peptide, secreted by Pichia pastoris X33 (pPICZ-A); purified, glycosylated, 40-55 kDa smear, about 35 kDa after Endo H; short-type UPO, heme-thiolate
Briefly: spectrophotometric 4-nitrocatechol formation, […] nm, Michaelis-Menten fit. The format is biochemical, Marasmius fiardii PR-910. The conditions noted are these: 2 mM H2O2 co-substrate; 30 °C; pH 7.0 potassium phosphate.

For assay [3], the system named is T2, rMfiUPO. Briefly: spectrophotometric veratraldehyde formation, […] nm, Michaelis-Menten fit. It is filed as biochemical, Marasmius fiardii PR-910. The conditions noted are these: 2 mM H2O2 co-substrate; 30 °C; pH 6.0 potassium phosphate.

Structures are written as SMILES. Where a name gives a salt, the structure may show the parent alone. Read-outs that look alike come from different tables or passages of the source.

On to `CCn1c(=NN=c2sc3cc(S(=O)(=O)O)ccc3n2CC)sc2cc(S(=O)(=O)O)ccc21` [ABTS, 2,2ʹ-azinobis (3-ethylbenzothiazoline-6-sulfonic acid) diammonium salt], for which the Km in the assay with rMfiUPO [1] was found to be 22 ± 7 µM.
Regarding `O=[N+]([O-])c1ccc2c(c1)OCO2` [NBD, 5-nitro-1,3-benzodioxole], in the assay with rMfiUPO [2], the Km worked out at 93 ± 14 µM.
Consider `COc1ccc(CO)cc1OC` [VA], for which the Km with rMfiUPO [3] was determined as 392 ± 109 µM.

By Km is commonly meant the concentration of substrate that gives half-maximal velocity.
